Results taken from PubChem BioAssay (NCI).
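Following 48 hours of exposure in 96-well plates, responses at five concentrations were used to interpolate endpoints linearly. GI50 is the concentration that inhibits growth by half. TGI marks complete inhibition of growth.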

Legend:
Assay in all cases: NCI tumour cell line growth inhibition, 48 h
SF-539 CNS = tested on: SF-539 CNS
SR leukemia = tested on: SR leukemia
RPMI-8226 leukemia = tested on: RPMI-8226 leukemia
RXF 393 renal = tested on: RXF 393 renal
MCF7 breast = tested on: MCF7 breast
UO-31 renal = tested on: UO-31 renal
OVCAR-8 ovarian = tested on: OVCAR-8 ovarian
OVCAR-4 ovarian = tested on: OVCAR-4 ovarian
HT29 colon = tested on: HT29 colon
NCI-H23 lung = tested on: NCI-H23 lung

Structure (SMILES)	GI50 (SF-539 CNS) [µM]	TGI (SF-539 CNS) [µM]	GI50 (SR leukemia) [µM]	TGI (SR leukemia) [µM]	GI50 (RPMI-8226 leukemia) [µM]	TGI (RPMI-8226 leukemia) [µM]	GI50 (RXF 393 renal) [µM]	TGI (RXF 393 renal) [µM]	GI50 (MCF7 breast) [µM]	TGI (MCF7 breast) [µM]	GI50 (UO-31 renal) [µM]	TGI (UO-31 renal) [µM]	GI50 (OVCAR-8 ovarian) [µM]	TGI (OVCAR-8 ovarian) [µM]	GI50 (OVCAR-4 ovarian) [µM]	TGI (OVCAR-4 ovarian) [µM]	GI50 (HT29 colon) [µM]	TGI (HT29 colon) [µM]	GI50 (NCI-H23 lung) [µM]	TGI (NCI-H23 lung) [µM]
CC1(C)Cc2cccc(OCC(O)CN3CCN(c4ccc(F)cc4)CC3)c2O1 (stereo not given)	13	27.3	13.4	> 50	9.18	26.2	8.33	22.6	13.4	49.7	13.5	> 50	18.2	> 50	13.3	> 50	7.87	17.2	19.1	> 50
O=C(Nc1ncc(Cc2ccccc2)s1)c1ccc2c(c1)OCCO2	0.0283	0.177	0.0487	> 100	0.0587	> 100	0.0231	0.0715	0.0546	> 100	0.0756	> 100	0.0591	> 100	0.561	> 100	0.0506	> 22	0.0679	> 100
COc1ccc2c(CC(=O)O)cc(=O)oc2c1		> 100		> 100		> 100		> 100		> 100		> 100		> 100		> 100		> 100		> 100
CCOC(=O)c1c[nH]c2c(OCc3ccccc3)c3ccccc3c(O)c2c1=O	2.53	11.2	21.3	> 100	26.9	> 100	22.6	55.7	9.55	> 67.4	21.7	> 100	5.6	41.3	54.3	> 100	22.2	> 100	6.75	28.6
C/C(=N\Nc1ccc2ccccc2n1)c1ccccc1O		> 100		8.16		> 100		> 100		> 100		> 100		> 100		> 100		> 100		> 100
SC[C@@H]1COC[C@H](CS)S1		> 100		> 100						> 100		> 100		> 100		> 100		> 100		> 100
O=C(c1ccccc1)c1ccc(Cl)c([N+](=O)[O-])c1	5.1	19	3.04	9.66	3.64	21.9			2.56	9.74	2.25	5.34	4.7	17.7	1.73	3.13	3.43	11.1	16.2	32.8
O=C(c1ccccn1)c1nnn2ccccc12		> 100		> 100		> 100				> 100				> 100		> 100		> 100		> 100
Cc1cc(Cl)ccc1NC(=O)/C(Cl)=C(/Cl)C(=O)O		50.9		36.4		70.5		36.3		50.5		> 100		34.2				57.7		67.8
O=C(Nc1ccc(Cl)c(Cl)c1)C(=O)C(C1OC(=O)c2ccccc21)[N+](=O)[O-] (stereo not given)		> 100		> 100				> 100		> 100		> 100		> 100		> 100		> 100		> 100
COC1OCC(OS(=O)(=O)c2ccc(C)cc2)C(OC(=O)c2ccccc2)C1OC(=O)c1ccccc1 (stereo not given)	5	> 100	3.07	> 100			4.62	> 100	3.01	> 100	> 100	> 100	> 100	> 100	9.24	> 100	3.96	> 100	> 100	> 100
COc1c(OC(C)=O)c(OC(C)=O)cc2c1-c1ccc(OC)c(=O)cc1C(NC(C)=O)CC2 (stereo not given)		0.173		> 100		> 100				> 100		> 100		> 70.1		> 100				5.24
CC1(C)CC(=O)C(C(c2cccc(O)c2O)C2C(=O)CC(C)(C)CC2=O)C(=O)C1		> 100		> 100		> 100		> 100		> 100				> 100		> 100		> 100		> 100
O=C(CCCCC(=O)N/N=C\c1ccccc1Cl)N/N=C\c1ccccc1Cl	16.9	> 100	> 100	> 100	0.723	> 100	11	32.7	1.62	> 100	3.32	> 100	0.515	30.6	7.55	> 100			13.7	> 100
CN(C)CCCNC(=O)c1cc(NC(=O)CCNC(=O)c2ccc3c(c2)C(=O)c2ccccc2C3=O)cn1C	> 100	> 100	31	99.6	48	> 100	> 100	> 100	20.1	56.4	> 100	> 100	> 100	> 100			79.8	> 100	> 100	> 100
CCCCCCCCCCCCOC1C(CNC(=O)C2OC3OC(C)(C)OC3C2NC(=O)CN2CCN(c3ccccn3)CC2)OC2OC(C)(C)OC21 (stereo not given)	1.93	3.44		1.86			1.36	2.74	1.94	4.58	1.42	2.72	1.62	3.15	2.52	7.7	1.75	3.34	4.16	9.1
